# According to ChEMBL document CHEMBL3822377, “Locking PDK1 in DFG-out conformation through 2-oxo-indole containing molecules: Another tools to fight glioblastoma” (Eur J Med Chem, 2016):
# Experiments:
# [1] = biological target: Cyclin-dependent kinase 1/cyclin B1 (Homo sapiens) (UniProt P06493+P14635); test: Inhibition of His-tagged full-length human CDK1/Cyclin B expressed in baculovirus system at 100 nM by Z-lyte assay
# [2] = biological target: CDK7/Cyclin H/MNAT1 (Homo sapiens) (UniProt P51946+P50613+P51948); test: Inhibition of His-tagged full-length human recombinant CDK7/Cyclin H/MNAT1 expressed in baculovirus system at 100 nM by adapta assay
# [3] = biological target: Inhibitor of nuclear factor kappa-B kinase subunit alpha (Homo sapiens) (UniProt O15111); test: Inhibition of His-tagged full-length human IKKalpha expressed in baculovirus system at 100 nM by adapta assay
# [4] = biological target: Rho-associated protein kinase 2 (Homo sapiens) (UniProt O75116); test: Inhibition of catalytic recombinant GST-tagged human ROCK2 expressed in baculovirus system at 100 nM by Z-lyte assay
# [5] = biological target: PI3-kinase p110-delta/p85-alpha (Homo sapiens) (UniProt P27986+O00329); test: Inhibition of His-tagged full-length human PIK3CD/PIK3R1 expressed in baculovirus system at 100 nM by adapta assay
# [6] = biological target: Rho-associated protein kinase 1 (Homo sapiens) (UniProt Q13464); test: Inhibition of catalytic GST-tagged human ROCK1 expressed in baculovirus system at 100 nM by Z-lyte assay
# [7] = biological target: CDK9/cyclin T1 (Homo sapiens) (UniProt O60563+P50750); test: Inhibition of His-tagged full-length human recombinant CDK9/Cyclin T1 expressed in baculovirus system at 100 nM by adapta assay
# [8] = biological target: Tyrosine-protein kinase BTK (Homo sapiens) (UniProt Q06187); test: Inhibition of His-tagged full-length human BTK expressed in baculovirus system at 100 nM by Z-lyte assay
# [9] = biological target: G protein-coupled receptor kinase 5 (Homo sapiens) (UniProt P34947); test: Inhibition of GST-tagged full-length human recombinant GRK5 expressed in baculovirus system at 100 nM by Z-lyte assay
# [10] = biological target: PI3-kinase p110-alpha/p85-alpha (Homo sapiens) (UniProt P27986+P42336); test: Inhibition of His-tagged full-length human recombinant PIK3CA/PIK3R1 expressed in baculovirus system at 100 nM by adapta assay
# [11] = biological target: Phosphatidylinositol 4-kinase beta (Homo sapiens) (UniProt Q9UBF8); test: Inhibition of GST-tagged full-length human PI4K beta expressed in baculovirus system at 100 nM by adapta assay
# [12] = biological target: Protein kinase C alpha type (Homo sapiens) (UniProt P17252); test: Inhibition of His-tagged full-length human PRKACA expressed in Escherichia coli system at 100 nM by Z-lyte assay
# [13] = biological target: Casein kinase I isoform alpha (Homo sapiens) (UniProt P48729); test: Inhibition of GST-tagged human CSNK1A1 expressed in baculovirus system at 100 nM by Z-lyte assay
# [14] = Induction of apoptosis in human GSC cells assessed as early apoptotic cells by measuring phosphatidylserine externalisation at 10 uM after 7 days by AnnexinV/FITC staining-based flow cytometry (reference value: 6.69%); type: functional
# [15] = biological target: Mitogen-activated protein kinase 9 (Homo sapiens) (UniProt P45984); test: Inhibition of His-tagged full-length recombinant human MAPK9 expressed in baculovirus system at 100 nM by Z-lyte assay
# [16] = biological target: Cyclin-dependent kinase 5/CDK5 activator 1 (Homo sapiens) (UniProt Q00535+Q15078); test: Inhibition of GST/His-tagged full-length human CDK5/p25 expressed in baculovirus system at 100 nM by Z-lyte assay
# [17] = biological target: RAC-beta serine/threonine-protein kinase (Homo sapiens) (UniProt P31751); test: Inhibition of His-tagged full-length human AKT2 expressed in baculovirus system at 100 nM by Z-lyte assay
# [18] = biological target: Dual specificity protein kinase CLK1 (Homo sapiens) (UniProt P49759); test: Inhibition of GST-tagged human CLK1 expressed in Escherichia coli at 100 nM by Z-lyte assay
# [19] = biological target: Serine/threonine-protein kinase PAK 6 (Homo sapiens) (UniProt Q9NQU5); test: Inhibition of His-tagged full-length recombinant human PAK6 expressed in baculovirus system at 100 nM by Z-lyte assay
# [20] = biological target: Protein kinase C epsilon type (Homo sapiens) (UniProt Q02156); test: Inhibition of full-length recombinant human PRKCE expressed in baculovirus system at 100 nM by Z-lyte assay
# U-87 MG = test: Induction of apoptosis in human U87MG cells assessed as dead cells by measuring phosphatidylserine externalisation at 10 uM after 72 hrs in presence of 7-amino-actinomysin by AnnexinV/FITC staining-based flow cytometry (reference value: 2.1%); type: functional, U-87MG ATCC
# [21] = Antiproliferative activity against human U87MG cells at 0.001 to 100 uM after 24 hrs by MTS assay; type: functional, U-87MG ATCC
# [22] = biological target: Mitogen-activated protein kinase 3 (Homo sapiens) (UniProt P27361); test: Inhibition of GST-tagged full-length recombinant human MAPK3 expressed in baculovirus system at 100 nM by Z-lyte assay
# [23] = biological target: Tyrosine-protein kinase ABL1 (Homo sapiens) (UniProt P00519); test: Inhibition of His-tagged full-length human ABL1 expressed in baculovirus system at 100 nM by Z-lyte assay
# [24] = biological target: Ribosomal protein S6 kinase beta-1 (Homo sapiens) (UniProt P23443); test: Inhibition of catalytic GST-tagged human RPS6KB1 expressed in baculovirus system at 100 nM by Z-lyte assay
# [25] = (§1) Antiproliferative activity against human U87MG cells after 72 hrs by MTS assay; type: functional, cell-based, U-87MG ATCC; details: U-87 MG
# U-87MG ATCC = test: as §1; type: functional, cell-based
# [26] = biological target: AMP-activated protein kinase, AMPK (Homo sapiens) (UniProt P54646+O43741+P54619+Q9UGJ0+Q9Y478+Q13131+Q9UGI9); test: Inhibition of GST/His-tagged full-length human recombinant AMPK A2/B1/G1 expressed in baculovirus system at 100 nM by Z-lyte assay
# [27] = biological target: Serine/threonine-protein kinase B-raf (Homo sapiens) (UniProt P15056); test: Inhibition of GST-tagged full-length human BRAF expressed in baculovirus system at 100 nM by Z-lyte assay
# [28] = biological target: Aurora kinase A (Homo sapiens) (UniProt O14965); test: Inhibition of His-tagged full-length recombinant human Aurora A expressed in baculovirus system at 100 nM by Z-lyte assay
# [29] = biological target: Casein kinase II subunit alpha' (Homo sapiens) (UniProt P19784); test: Inhibition of GST-tagged full-length human recombinant CSNK2A2 expressed in baculovirus system at 100 nM by Z-lyte assay
# [30] = biological target: Ribosomal protein S6 kinase alpha-1 (Homo sapiens) (UniProt Q15418); test: Inhibition of His-tagged full-length recombinant human RSK1 expressed in baculovirus system at 100 nM by Z-lyte assay
# [31] = biological target: Serine/threonine-protein kinase Chk1 (Homo sapiens) (UniProt O14757); test: Inhibition of His-tagged full-length human CHEK1 expressed in baculovirus system at 100 nM by Z-lyte assay
# Chain of Mitogen-activated protein kinase 9 (Homo sapiens) (P45984 whole entry, looked up): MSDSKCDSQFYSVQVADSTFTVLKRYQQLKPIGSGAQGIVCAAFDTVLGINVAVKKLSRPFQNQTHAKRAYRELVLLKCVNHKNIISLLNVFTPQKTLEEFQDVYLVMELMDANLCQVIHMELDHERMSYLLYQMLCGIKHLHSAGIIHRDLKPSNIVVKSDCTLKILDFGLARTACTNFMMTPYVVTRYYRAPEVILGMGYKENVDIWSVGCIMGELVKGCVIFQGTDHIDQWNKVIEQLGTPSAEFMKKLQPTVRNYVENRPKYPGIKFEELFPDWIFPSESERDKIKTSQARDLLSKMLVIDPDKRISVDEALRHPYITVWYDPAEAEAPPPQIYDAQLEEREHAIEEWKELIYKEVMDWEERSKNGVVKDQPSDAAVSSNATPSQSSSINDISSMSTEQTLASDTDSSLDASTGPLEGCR
# Chain of Tyrosine-protein kinase BTK (Homo sapiens) (Q06187 whole entry): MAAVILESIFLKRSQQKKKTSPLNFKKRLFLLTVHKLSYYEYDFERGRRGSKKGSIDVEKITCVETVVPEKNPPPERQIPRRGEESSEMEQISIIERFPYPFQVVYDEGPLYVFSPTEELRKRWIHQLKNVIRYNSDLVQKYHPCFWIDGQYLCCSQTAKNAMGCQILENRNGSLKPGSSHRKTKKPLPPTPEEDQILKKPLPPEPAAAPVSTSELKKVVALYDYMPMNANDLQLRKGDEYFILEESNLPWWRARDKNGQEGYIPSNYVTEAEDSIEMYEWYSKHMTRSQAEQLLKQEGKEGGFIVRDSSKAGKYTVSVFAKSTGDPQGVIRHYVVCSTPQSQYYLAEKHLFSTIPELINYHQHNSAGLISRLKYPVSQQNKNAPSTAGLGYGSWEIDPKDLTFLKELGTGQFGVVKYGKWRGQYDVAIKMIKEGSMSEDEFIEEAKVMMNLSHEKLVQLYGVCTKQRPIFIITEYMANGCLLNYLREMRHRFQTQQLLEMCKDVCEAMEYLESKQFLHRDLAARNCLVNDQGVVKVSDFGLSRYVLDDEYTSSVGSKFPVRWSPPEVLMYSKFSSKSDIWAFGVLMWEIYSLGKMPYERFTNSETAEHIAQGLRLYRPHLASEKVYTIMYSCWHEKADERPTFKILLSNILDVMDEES
# Chain of Rho-associated protein kinase 1 (Homo sapiens) (Q13464 2-1354 limits assumed): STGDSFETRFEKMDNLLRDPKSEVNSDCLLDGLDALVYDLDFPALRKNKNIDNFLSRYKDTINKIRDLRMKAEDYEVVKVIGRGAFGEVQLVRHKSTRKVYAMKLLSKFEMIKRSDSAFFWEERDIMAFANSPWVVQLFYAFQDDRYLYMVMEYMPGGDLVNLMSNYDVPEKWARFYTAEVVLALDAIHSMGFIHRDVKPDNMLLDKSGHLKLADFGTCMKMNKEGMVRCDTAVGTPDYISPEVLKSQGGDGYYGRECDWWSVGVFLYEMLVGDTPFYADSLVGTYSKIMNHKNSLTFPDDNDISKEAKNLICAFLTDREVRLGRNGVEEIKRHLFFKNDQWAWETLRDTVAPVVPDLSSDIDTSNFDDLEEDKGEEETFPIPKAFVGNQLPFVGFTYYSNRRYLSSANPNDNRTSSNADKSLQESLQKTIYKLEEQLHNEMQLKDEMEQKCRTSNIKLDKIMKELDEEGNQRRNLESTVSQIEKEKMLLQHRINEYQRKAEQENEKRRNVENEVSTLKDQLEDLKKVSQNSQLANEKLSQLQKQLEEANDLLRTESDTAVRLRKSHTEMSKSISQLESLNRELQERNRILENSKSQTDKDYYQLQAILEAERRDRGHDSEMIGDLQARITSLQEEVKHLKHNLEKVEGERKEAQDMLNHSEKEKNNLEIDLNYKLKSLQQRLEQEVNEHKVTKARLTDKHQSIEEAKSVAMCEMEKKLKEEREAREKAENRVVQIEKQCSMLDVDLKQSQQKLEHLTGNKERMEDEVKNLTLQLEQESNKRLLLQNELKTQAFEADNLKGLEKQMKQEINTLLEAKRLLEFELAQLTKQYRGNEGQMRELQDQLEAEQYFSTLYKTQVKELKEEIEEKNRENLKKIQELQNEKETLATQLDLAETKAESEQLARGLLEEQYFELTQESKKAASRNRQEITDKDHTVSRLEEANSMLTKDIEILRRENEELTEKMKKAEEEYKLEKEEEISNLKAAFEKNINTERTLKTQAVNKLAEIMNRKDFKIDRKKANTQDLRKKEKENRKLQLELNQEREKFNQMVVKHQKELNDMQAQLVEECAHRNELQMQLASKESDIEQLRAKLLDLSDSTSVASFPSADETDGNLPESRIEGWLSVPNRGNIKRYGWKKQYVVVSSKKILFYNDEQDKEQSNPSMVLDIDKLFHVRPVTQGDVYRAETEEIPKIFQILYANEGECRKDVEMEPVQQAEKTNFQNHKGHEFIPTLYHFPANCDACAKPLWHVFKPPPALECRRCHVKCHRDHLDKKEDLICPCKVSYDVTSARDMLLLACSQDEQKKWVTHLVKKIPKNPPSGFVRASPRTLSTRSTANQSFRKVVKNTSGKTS
# Chain of RAC-beta serine/threonine-protein kinase (Homo sapiens) (P31751 whole entry): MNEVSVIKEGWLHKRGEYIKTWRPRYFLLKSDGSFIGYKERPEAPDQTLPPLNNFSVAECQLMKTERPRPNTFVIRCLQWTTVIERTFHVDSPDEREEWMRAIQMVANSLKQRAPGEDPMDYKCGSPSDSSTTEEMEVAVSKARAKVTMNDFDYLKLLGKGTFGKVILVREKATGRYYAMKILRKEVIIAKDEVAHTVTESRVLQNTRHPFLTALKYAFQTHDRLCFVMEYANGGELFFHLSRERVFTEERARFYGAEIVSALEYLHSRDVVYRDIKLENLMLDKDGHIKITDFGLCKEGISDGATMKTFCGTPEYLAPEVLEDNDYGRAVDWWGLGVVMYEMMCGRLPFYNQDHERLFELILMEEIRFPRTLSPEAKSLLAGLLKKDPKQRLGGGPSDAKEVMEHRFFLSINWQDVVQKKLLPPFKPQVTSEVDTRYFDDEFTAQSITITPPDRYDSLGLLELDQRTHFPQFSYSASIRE
# Chain of Ribosomal protein S6 kinase beta-1 (Homo sapiens) (P23443 whole entry, looked up): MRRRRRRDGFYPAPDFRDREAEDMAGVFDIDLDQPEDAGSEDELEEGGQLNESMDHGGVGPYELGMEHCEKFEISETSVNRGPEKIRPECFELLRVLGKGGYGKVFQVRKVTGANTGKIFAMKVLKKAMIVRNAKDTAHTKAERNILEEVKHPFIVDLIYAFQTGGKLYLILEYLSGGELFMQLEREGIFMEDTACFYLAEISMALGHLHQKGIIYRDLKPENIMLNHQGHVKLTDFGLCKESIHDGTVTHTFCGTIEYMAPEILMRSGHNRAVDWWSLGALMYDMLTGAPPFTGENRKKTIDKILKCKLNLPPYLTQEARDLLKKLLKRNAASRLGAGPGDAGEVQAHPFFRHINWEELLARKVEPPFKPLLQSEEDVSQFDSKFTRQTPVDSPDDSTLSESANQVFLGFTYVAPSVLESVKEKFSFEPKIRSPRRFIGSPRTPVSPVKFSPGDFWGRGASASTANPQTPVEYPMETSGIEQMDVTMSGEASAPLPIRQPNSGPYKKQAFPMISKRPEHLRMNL
# Chain of Dual specificity protein kinase CLK1 (Homo sapiens) (P49759 whole entry, looked up): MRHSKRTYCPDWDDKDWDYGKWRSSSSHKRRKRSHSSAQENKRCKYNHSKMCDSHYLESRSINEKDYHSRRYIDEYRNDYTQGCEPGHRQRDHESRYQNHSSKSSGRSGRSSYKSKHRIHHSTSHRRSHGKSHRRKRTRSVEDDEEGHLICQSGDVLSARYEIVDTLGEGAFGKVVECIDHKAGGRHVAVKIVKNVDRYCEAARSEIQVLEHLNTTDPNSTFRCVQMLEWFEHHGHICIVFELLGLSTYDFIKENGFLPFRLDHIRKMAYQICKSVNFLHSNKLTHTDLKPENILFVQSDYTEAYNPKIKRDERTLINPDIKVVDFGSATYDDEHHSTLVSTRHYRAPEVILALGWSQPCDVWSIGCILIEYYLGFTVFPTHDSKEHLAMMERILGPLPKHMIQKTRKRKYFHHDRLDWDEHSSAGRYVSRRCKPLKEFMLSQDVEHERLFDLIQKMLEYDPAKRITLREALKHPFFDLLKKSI
# Chain of Casein kinase II subunit alpha' (Homo sapiens) (P19784 whole entry, looked up): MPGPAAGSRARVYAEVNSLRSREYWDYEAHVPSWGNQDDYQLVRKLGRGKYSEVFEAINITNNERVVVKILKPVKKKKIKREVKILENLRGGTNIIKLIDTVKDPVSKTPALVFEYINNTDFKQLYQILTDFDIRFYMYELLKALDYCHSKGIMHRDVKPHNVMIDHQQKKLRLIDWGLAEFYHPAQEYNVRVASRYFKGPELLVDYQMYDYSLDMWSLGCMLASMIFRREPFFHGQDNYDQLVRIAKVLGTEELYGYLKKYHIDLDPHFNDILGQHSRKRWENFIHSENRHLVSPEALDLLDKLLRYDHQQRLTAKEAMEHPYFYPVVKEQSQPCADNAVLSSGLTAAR
structure (smiles),measurement,setting,value
O=C(CNC(=O)c1cccn(Cc2ccc(F)c(F)c2)c1=O)Nc1ccc2c(c1)/C(=C/c1cnc[nH]1)C(=O)N2,inhibition,[1],6%
same,inhibition,[2],1%
same,inhibition,[3],3%
same,inhibition,[4],2%
same,inhibition,[5],17%
same,inhibition,[6],-7%
same,inhibition,[7],6%
same,inhibition,[8],-3%
same,inhibition,[9],-4%
same,inhibition,[10],20%
same,inhibition,[11],4%
same,inhibition,[12],-5%
same,inhibition,[13],-2%
same,Activity,[14],16.15%
same,inhibition,[15],-1%
same,inhibition,[16],-8%
same,inhibition,[17],-4%
same,inhibition,[18],-2%
same,inhibition,[19],-4%
same,inhibition,[20],3%
same,Activity,U-87 MG,0.64%
same,Imax,[21],41%
same,inhibition,[22],-3%
same,inhibition,[23],14%
same,inhibition,[24],-6%
same,IC50,[25],450 nM
same,inhibition,U-87MG ATCC,Dose-dependent effect
same,inhibition,[26],10%
same,inhibition,[27],17%
same,inhibition,[28],38%
same,inhibition,[29],3%
same,inhibition,[30],2%
same,inhibition,[31],6%
